Measurements: BindingDB's records for doi:10.1111/cbdd.12728 (Jawaharlal Nehru Centre For Advanced Scientific Research, 2016)
“And” between values parts separate entries of the source, which are not always exact repeats. Identical values can stand only once.

Biological target: Aurora kinase B (Homo sapiens, UniProt Q96GD4)
Experiment: Isothermal Titration Calorimetry (ITC)
Conditions: pH 8; 25 °C
Protocol: Calorimetric titrations were performed in a Microcal iTC 200 microcalorimeter. Freshly purified 5 µM protein (Aurora A/B kinases) was titrated against 100 µM ligand (felodipine/ PTK66) in each case at 25 °C. Proteins and the ligandswere diluted in the final dialysate (20 mM Tris-HCl, pH 8.0, 0.2 mM EDTA and 100 mM KCl) against which the proteins were extensively dialysed to avoid any artefact due to the minor differences in buffer composition. DMSO content was kept exactly same in the cell (not exceeding 0.2% v/v) and syringe to rule out any interference due to DMSO content mismatch. All samples were thoroughly degassed prior to titration and were prepared with the same batch of dialysate to avoid any artefacts from the minor differences in buffer composition. Dilutions of 100 µM felodipine/PTK66 in dialysate containing equal percentage of DMSOserved as controls. The stirring speed was 300 rpm.

Sequence of Aurora kinase B (Q96GD4 whole entry): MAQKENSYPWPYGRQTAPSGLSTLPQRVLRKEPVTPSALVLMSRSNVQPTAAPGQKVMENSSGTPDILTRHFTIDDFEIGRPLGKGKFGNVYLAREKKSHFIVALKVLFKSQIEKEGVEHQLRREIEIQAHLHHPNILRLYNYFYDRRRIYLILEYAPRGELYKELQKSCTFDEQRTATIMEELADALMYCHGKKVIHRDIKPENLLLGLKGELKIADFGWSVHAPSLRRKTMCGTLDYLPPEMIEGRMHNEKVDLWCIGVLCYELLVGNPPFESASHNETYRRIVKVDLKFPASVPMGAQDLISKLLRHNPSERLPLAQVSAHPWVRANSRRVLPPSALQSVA

| Compound | Kd |
| --- | --- |
| CCOC(=O)C1=C(C)NC(C)=C(C(=O)OC)[C@H]1c1cccc(Cl)c1Cl [5-O-ethyl 3-O-methyl 4-(2,3-dichlorophenyl)-2,6-dimethyl-1,4-dihydropyridine-3,5-dicarboxylate] | 1.14 µM |
| Cc1cc(O)cc(O)c1/N=N/c1nccs1 [5-methyl-4-(2-thiazolylazo)resorcinol] | 1.75 µM and 0.5 µM |
